In patent US20220112445A1 (priority 2019, published 2022):
Like-named read-outs stand apart in the source and are kept apart here.

Tests used:
[1] = system: Bacillus subtilis subsp. globigii; details: cited from earlier work
Bacillus spores [2] = details: cited from earlier work
Bacillus spores [3] = system: Bacillus spores
Description: Other embodiments of the treatment formula were also tested using varying amounts of hydrogen peroxide.

Bacillus subtilis spores = details: 20 mg/I hydrogen peroxide for 60 minutes; cited from earlier work

## OO [H2O2, hydrogen peroxide]
[1]; 10% hydrogen peroxide at room temperature
  effectiveness against Bacillus subtilis subsp. globigii: ineffective
[1]; high temperature (80° C.)
  concentration required for the destruction of these spores: 35%
Bacillus spores [2]; 25° C., levels of between 10 and 20% (w/v)
  concentration exponent: about 1.5
Bacillus spores [2]; concentration of 6% (w/vol)
  bactericidal / sporicidal activity: bactericidal, but only slowly sporicidal
Bacillus spores [3]; 0.285 Percent H2O2, 5 minutes after mixing
  Spore Survival 5 Minutes: Excellent
Bacillus spores [3]; 0.285 Percent H2O2, 2 hours after mixing
  Spore Survival 2 Hours: Excellent
Bacillus spores [3]; 0.285 Percent H2O2, 4 hours after mixing
  Spore Survival 4 Hours: Excellent
Bacillus spores [3]; 0.285 Percent H2O2, 6 hours after mixing
  Spore Survival 6 Hours: Excellent
Bacillus spores [3]; 0.285 Percent H2O2, 24 hours after mixing
  Spore Survival 24 Hours: Excellent
Bacillus spores [3]; 0.71 Percent H2O2, 5 minutes after mixing
  Spore Survival 5 Minutes: Excellent
Bacillus spores [3]; 0.71 Percent H2O2, 2 hours after mixing
  Spore Survival 2 Hours: Good
Bacillus spores [3]; 0.71 Percent H2O2, 4 hours after mixing
  Spore Survival 4 Hours: Fair
Bacillus spores [3]; 0.71 Percent H2O2, 6 hours after mixing
  Spore Survival 6 Hours: Fair
Bacillus spores [3]; 0.71 Percent H2O2, 24 hours after mixing
  Spore Survival 24 Hours: Poor
Bacillus spores [3]; 1.43% hydrogen peroxide level
  spore viability: not viable
Bacillus spores [3]; 1.43 Percent H2O2, 5 minutes after mixing
  Spore Survival 5 Minutes: 0
Bacillus spores [3]; 1.43 Percent H2O2, 2 hours after mixing
  Spore Survival 2 Hours: 0
Bacillus spores [3]; 1.43 Percent H2O2, 4 hours after mixing
  Spore Survival 4 Hours: 0
Bacillus spores [3]; 1.43 Percent H2O2, 6 hours after mixing
  Spore Survival 6 Hours: 0
Bacillus spores [3]; 1.43 Percent H2O2, 24 hours after mixing
  Spore Survival 24 Hours: 0
Bacillus subtilis spores
  kill of Bacillus subtilis spores: no kill
